Patent publication US10772903B2, “Targeting fungi in combination with cancer therapy” (Cedars-Sinai Medical Center, priority 2016, dated 2020)

Assays:
E0771 mammary tumors = test: Orthotopic E0771 mammary tumors, tumor growth after localized irradiation with or without antibiotics/antifungals; type: in vivo, mice; settings: for tumor response to RT: agent for one week prior to localized kV irradiation (16 Gy), FIG. 26, 27A
Protocol: Orthotopic E0771 mammary tumors were grown to a median diameter of 1.0 cm and mice were then started with either antibiotics (Abx) or antifungals (AF) for one week prior to being treated with localized kV irradiation (16 Gy). Total tumor burden/animal assessed every 3 days until endpoint. […] Antibiotics (Abx) were ampicillin, imipenem, cilastin and vancomycin. Fluconazole was the antifungals (AF) used for these experiments. Significance was determined by two-way ANOVA. Kaplan-Meier survival curves are also shown with significance determined by the Log-Rank test (FIG. 26G, FIG. 26H). One of five experiments is shown. […] For all figures significance is shown as *p<0.05, **p<0.01, ***p<0.001.
Orthotopic E0771 mammary tumors were grown as described above and then treated with either the antifungal (5-fluorocytosine) one week prior to treatment with localized kV irradiation (16 Gy) (n=8 per group, one of two repeats shown) (FIG. 27A).
For experiments assessing antifungal treatment and the efficacy of radiation therapy (FIGS. 2 and 13), mice bearing syngeneic murine tumors (derived from the E0771 cell line) were treated for one week with fluconazole by putting fluconazole in their drinking water. When tumors reached approximately 1 cm in size they were irradiated with 16 Gray of focal radiation from a Cesium-137 source. The tumors were then followed for tumor growth until they reached approximately 2 cm in size at which time they were harvested for analysis.
For experiments assessing the anti-fungal combination treatment (FIG. 14), in addition to just fluconazole the mice were treated with a cocktail of antifungals (Fluconazole, 5-Fluorocytosine and Amphotericin B) for one week prior to RT.

intratumoral leukocytes = settings: FIG. 3; with RT; fluconazole added to RT and antibiotics
Protocol: Irradiated E0771 mammary tumors were harvested from mice at one week following RT. Tumors were dissociated using the tumor dissociation kit (Miltenyi Biotech) and CD45+ cells were then isolated with CD45+ MacsBeads. The resulting CD45+ cells were then stained with fluorescent antibodies and run on a flow cytometer. Total leukocytes (CD45+ Cells), CD4+ T cells, CD8+ T cells, M1 macrophages (CD11b+Ly6C+) and M1 macrophages (CD11b+F4/80′) were assessed following antibiotic (FIG. 28A-FIG. 28D) and antifungal (FIG. 28E-FIG. 28H) treatment. Antibiotics (Abx) were ampicillin, imipenem, cilastin and vancomycin. Fluconazole was the antifungal (AF) used for these experiments. n=5-7 per group and represent one of five independent experiments.

tumors = test: Tumor immunohistochemistry: proliferation, cell death, vessels; type: in vivo, mice; settings: FIG. 5
Protocol: Orthotopic E0771 mammary tumors were grown to a median diameter of 1.0 cm and mice were then started with either antibiotics (Abx) or antifungals (AF) for one week prior to being treated with localized kV irradiation (16 Gy). Total tumor burden/animal assessed every 3 days until endpoint. […] Antibiotics (Abx) were ampicillin, imipenem, cilastin and vancomycin. Fluconazole was the antifungals (AF) used for these experiments. Significance was determined by two-way ANOVA. Kaplan-Meier survival curves are also shown with significance determined by the Log-Rank test (FIG. 26G, FIG. 26H). One of five experiments is shown. Tumors from mice were harvested at one week following RT and stained for bromodeoxyuridine (BrdU) and cleaved caspase 3 (CC3) to assess for proliferation and cell death respectively (FIG. 26I, FIG. 26J). Slides were scanned using the Aperio slide scanner and analyzed using the ScanScope nuclear algorithm included in the Aperio software package. Significance was determined by two-way ANOVA. For all figures significance is shown as *p<0.05, **p<0.01, ***p<0.001.

CD4+ T cells = test: Cytokine expression of CD4+ T cells from tumors; type: in vivo, mice; settings: FIG. 4
Source text: Tumors were harvested from mice at various time points and analyzed by flow cytometry (FACS) (FIG. 22A), immunohistochemistry (IHC) (FIG. 22B) and qPCR (FIG. 22C). FIG. 22A) For FACS, tumors were enzymatically dissociated with and labeled with fluorescently tagged antibodies and then placed on a flow cytometer. FIG. 22B) For IHC, tumor fragments were fixed in formalin and embedded in paraffin. 5 micron sections were then cut and stained with various antibodies and developed with DAB prior to whole-slide scanning on the Aperio system (Leica Biosystems). FIG. 22C) qPCR was performed on flow sorted immune cells (e.g. CD4+ T cells or macrophages) and then subjected to qPCR with a panel of primers.
Tumors are harvested and evaluated at three endpoints: 1, 2, 4 and 10 days following RT. […]

| SMILES | tumor response to RT (E0771 mammary tumors) | CD4+ T cells (intratumoral leukocytes) | CD8+ T cells (intratumoral leukocytes) | tumor apoptosis (tumors) | tumor cell division (tumors) | IFN-γ expression by CD4+ T cells (CD4+ T cells) | IL-4 expression by CD4+ T cells (CD4+ T cells) | efficacy of RT (E0771 mammary tumors; FIG. 12A, RT 16 Gy) |
| --- | --- | --- | --- | --- | --- | --- | --- | --- |
| Nc1nc(=O)[nH]cc1F [5-fluorocytosine] | similarly enhance the efficacy of RT | – | – | – | – | – | – | – |
| OC(Cn1cncn1)(Cn1cncn1)c1ccc(F)cc1F [Fluconazole] | enhance | reduces the increase in CD4+ T cell | prevents the reduction of CD8+ T cells | opposite | opposite | more | less | increases the efficacy of RT |
